Measurements published in PubChem BioAssay AID330 (DTP/NCI, 2004).
Where “and” joins values, the source holds several entries; their conditions need not be identical. Identical values can stand only once. Toxic doses and inconclusive results are not listed. Rule for the calls: active = survival T/C of 150% or more; inactive = T/C below 125% in these data.

Tested on: P388 leukemia ip, CD2F1 mice, survival T/C
Assay: NCI In Vivo Anticancer Drug Screen. Data for tumor model P388 Leukemia (intraperitoneal) in CD2F1 (CDF1) mice
Conditions: endpoint: median survival time, higher = longer survival
In short: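 Mice carrying the transplanted tumor received test compound or vehicle. Survival was recorded in each group, and the value is the treated-group measurement divided by that of the vehicle-treated control group.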

[1] = dose: 60.0 mg/kg/injection, schedule: Q01DX005 (ip), vehicle: Klucel (hydroxypropylcellulose) (HPC)
[2] = dose: 120.0 mg/kg/injection, schedule: Q01DX005 (ip), vehicle: Klucel (hydroxypropylcellulose) (HPC)
[3] = dose: 100.0 mg/kg/injection, schedule: Q04DX003 (ip), vehicle: saline with Tween-80
[4] = dose: 200.0 mg/kg/injection, schedule: Q04DX003 (ip), vehicle: saline with Tween-80
[5] = dose: 50.0 mg/kg/injection, schedule: Q01DX009 (ip), vehicle: saline
[6] = dose: 100.0 mg/kg/injection, schedule: Q01DX009 (ip), vehicle: saline
[7] = dose: 7.5 mg/kg/injection, schedule: Q01DX005 (ip), vehicle: saline with Tween-80
[8] = dose: 15.0 mg/kg/injection, schedule: Q01DX005 (ip), vehicle: saline with Tween-80
[9] = dose: 30.0 mg/kg/injection, schedule: Q01DX005 (ip), vehicle: saline with Tween-80
[10] = dose: 60.0 mg/kg/injection, schedule: Q01DX005 (ip), vehicle: saline with Tween-80
[11] = dose: 120.0 mg/kg/injection, schedule: Q01DX005 (ip), vehicle: saline with Tween-80
[12] = dose: 50.0 mg/kg/injection, schedule: Q01DX009 (ip), vehicle: Klucel (hydroxypropylcellulose) (HPC)
[13] = dose: 100.0 mg/kg/injection, schedule: Q01DX009 (ip), vehicle: Klucel (hydroxypropylcellulose) (HPC)
[14] = dose: 200.0 mg/kg/injection, schedule: Q01DX009 (ip), vehicle: Klucel (hydroxypropylcellulose) (HPC)
[15] = dose: 240.0 mg/kg/injection, schedule: Q01DX005 (ip), vehicle: saline with Tween-80
[16] = dose: 50.0 mg/kg/injection, schedule: Q01DX009 (ip), vehicle: saline with Tween-80
[17] = dose: 100.0 mg/kg/injection, schedule: Q01DX009 (ip), vehicle: saline with Tween-80
[18] = dose: 200.0 mg/kg/injection, schedule: Q01DX009 (ip), vehicle: saline with Tween-80
[19] = dose: 50.0 mg/kg/injection, schedule: Q01DX005 (ip), vehicle: Klucel (hydroxypropylcellulose) (HPC)
[20] = dose: 100.0 mg/kg/injection, schedule: Q01DX005 (ip), vehicle: Klucel (hydroxypropylcellulose) (HPC)
[21] = dose: 200.0 mg/kg/injection, schedule: Q01DX005 (ip), vehicle: Klucel (hydroxypropylcellulose) (HPC)

Measured: T/C

C=C(Br)C[C@]1(C(=O)OC)CC(=O)CC[C@H]1c1ccco1
inactive: [1] 108 % of control | [2] 107 % of control | dose: 240.0 mg/kg/injection, schedule: Q01DX005 (ip), vehicle: Klucel (hydroxypropylcellulose) (HPC) 106 % of control

CCCCNC(=O)Nc1ccc(C(=O)OCCCC)cc1
inactive: [3] 100 % of control | [4] 90 % of control

NC(N)=N/N=C/C(Cl)Cl
inactive: dose: 25.0 mg/kg/injection, schedule: Q01DX009 (ip), vehicle: saline 109 % of control | dose: 25.0 mg/kg/injection, schedule: Q04DX003 (ip), vehicle: saline 100 % of control | [5] 100 % of control | dose: 50.0 mg/kg/injection, schedule: Q04DX003 (ip), vehicle: saline 100 % of control | [6] 118 % of control | dose: 100.0 mg/kg/injection, schedule: Q04DX003 (ip), vehicle: saline 100 % of control and 95 % of control

CC1(C)N=c2cc3c(cc2N1c1ccc(Cl)cc1)=Nc1ccccc1N3c1ccc(Cl)cc1
inactive: [7] 99 % of control | [8] 90 % of control | [9] 87 % of control | [10] 89 % of control

Cc1c2ccn3c(=O)c4ccccc4cc3c2c(C)c2c1[nH]c1ccccc12
inactive: dose: 0.78 mg/kg/injection, schedule: Q04DX003 (ip), vehicle: distilled water + Tween-80 89 % of control | dose: 1.56 mg/kg/injection, schedule: Q04DX003 (ip), vehicle: distilled water + Tween-80 87 % of control | dose: 200.0 mg/kg/injection, schedule: Q04DX003 (ip), vehicle: distilled water + Tween-80 95 % of control

c1ccc2sc(SN3CCOCC3)nc2c1
inactive: [3] 87 % of control | [4] 100 % of control | dose: 400.0 mg/kg/injection, schedule: Q04DX003 (ip), vehicle: saline with Tween-80 95 % of control

CCOC(=O)C1=C(NC23CC4CC(CC(C4)C2)C3)OCC1=O
inactive: [10] 107 % of control | [11] 110 % of control

CCOP(=O)(OCC)C(C)NC(=O)C(C)NC(=O)c1cn(CC)c2nc(C)ccc2c1=O (stereo not given)
inactive: dose: 100.0 mg/kg/injection, schedule: Q04DX002 (ip), vehicle: saline 97 % of control | dose: 200.0 mg/kg/injection, schedule: Q04DX002 (ip), vehicle: saline 97 % of control | dose: 400.0 mg/kg/injection, schedule: Q04DX002 (ip), vehicle: saline 95 % of control

Nc1[nH]c(=O)[nH]c(=O)c1S(=O)(=O)O
inactive: [12] 95 % of control | [13] 90 % of control | [14] 95 % of control

CCNC(=O)OCc1c(COC(=O)NCC)c2n(c1C)CCc1ccccc1-2
active: dose: 12.5 mg/kg/injection, schedule: Q01DX009 (ip), vehicle: distilled water + Tween-80 157 % of control and 185 % of control | dose: 25.0 mg/kg/injection, schedule: Q01DX009 (ip), vehicle: distilled water + Tween-80 166 % of control

N#CC(C(=O)CCc1nc2ccccc2[nH]1)c1c(Cl)cccc1Cl (stereo not given)
inactive: [10] 109 % of control | [11] 101 % of control | [15] 102 % of control

C/C=C/C(=O)OCC1CCN(C)C1 (stereo not given)
inactive: dose: 12.5 mg/kg/injection, schedule: Q01DX009 (ip), vehicle: Klucel (hydroxypropylcellulose) (HPC) 95 % of control | dose: 25.0 mg/kg/injection, schedule: Q01DX009 (ip), vehicle: Klucel (hydroxypropylcellulose) (HPC) 94 % of control | [12] 96 % of control | [13] 94 % of control | [14] 89 % of control

CNCC1c2ccccc2CSc2c(OC)cccc21 (stereo not given)
inactive: dose: 6.25 mg/kg/injection, schedule: Q01DX005 (ip), vehicle: Klucel (hydroxypropylcellulose) (HPC) 101 % of control | dose: 12.5 mg/kg/injection, schedule: Q01DX005 (ip), vehicle: Klucel (hydroxypropylcellulose) (HPC) 98 % of control | dose: 25.0 mg/kg/injection, schedule: Q01DX005 (ip), vehicle: Klucel (hydroxypropylcellulose) (HPC) 98 % of control

Cc1ccc(NCCN(C)C)c2c(=O)c3ccc(O)cc3sc12
inactive: [16] 110 % of control | [17] 110 % of control

COC(=O)c1[nH]c(=O)c(C#N)c(C(=O)OC)c1-c1ccccn1
inactive: [10] 93 % of control | [11] 92 % of control | [15] 92 % of control

c1cc[n+](-[b-]2ccc3ccccc3c2)cc1
inactive: dose: 100.0 mg/kg/injection, schedule: Q01DX001 (ip), vehicle: saline with Tween-80 94 % of control | dose: 200.0 mg/kg/injection, schedule: Q01DX001 (ip), vehicle: saline with Tween-80 108 % of control | dose: 400.0 mg/kg/injection, schedule: Q01DX001 (ip), vehicle: saline with Tween-80 99 % of control

Cc1ccc(Nc2cccc3c2C(=O)c2cccc(Nc4ccc(C)cc4S(=O)(=O)O)c2C3=O)c(S(=O)(=O)O)c1
inactive: [16] 108 % of control | [17] 100 % of control | [18] 101 % of control

COC1(OC)OC(c2ccc([N+](=O)[O-])cc2)=C(c2ccc([N+](=O)[O-])cc2)OC1(OC)OC
inactive: [1] 90 % of control | [2] 87 % of control

N=C(N)SC12CC3CC(CC(C3)C1)C2
inactive: [7] 93 % of control | [8] 98 % of control | [9] 99 % of control | [10] 98 % of control

CCc1nc(N)nc(N)c1-c1ccc(NCCc2ccccc2)c(N)c1
inactive: [19] 90 % of control | [20] 96 % of control | [21] 100 % of control

N=C(N)SCCCCCCCCCCSC(=N)N
inactive: dose: 12.5 mg/kg/injection, schedule: Q01DX009 (ip), vehicle: saline with Tween-80 100 % of control and 90 % of control | dose: 25.0 mg/kg/injection, schedule: Q01DX009 (ip), vehicle: saline with Tween-80 98 % of control and 100 % of control | [16] 106 % of control

CCOc1ccc(NC(=O)CC(C)O)cc1 (stereo not given)
inactive: [16] 94 % of control | [17] 93 % of control | [18] 96 % of control

O=C1C(=O)N(c2ccc([N+](=O)[O-])cc2)C(=O)N1c1ccc([N+](=O)[O-])cc1
inactive: [10] 112 % of control | [11] 95 % of control | [15] 95 % of control

CCn1c2ccccc2c2cc(N=Nc3cc4ccccc4cc3O)ccc21
inactive: [12] 104 % of control | [13] 100 % of control | [14] 104 % of control

O=C(O)CC(NC(=O)CCl)C(=O)O (stereo not given)
inactive: [5] 99 % of control and 101 % of control | [6] 100 % of control and 101 % of control | dose: 200.0 mg/kg/injection, schedule: Q01DX009 (ip), vehicle: saline 101 % of control and 92 % of control

CC(Cc1ccccc1)NC(=O)c1cccnc1 (stereo not given)
inactive: [19] 98 % of control | [20] 90 % of control | [21] 99 % of control

COC(=O)C(=O)C1(c2ccccc2)C(=O)C(c2ccccc2)=CC1O (stereo not given)
inactive: dose: 60.0 mg/kg/injection, schedule: Q01DX005 (ip), vehicle: saline + Tween-80 + alcohol 104 % of control | dose: 120.0 mg/kg/injection, schedule: Q01DX005 (ip), vehicle: saline + Tween-80 + alcohol 101 % of control | dose: 240.0 mg/kg/injection, schedule: Q01DX005 (ip), vehicle: saline + Tween-80 + alcohol 100 % of control

C=COC(=O)C(Cc1cc(OC)c(OC)c(OC)c1)NC(=O)OCc1ccccc1 (stereo not given)
inactive: dose: 100.0 mg/kg/injection, schedule: Q04DX002 (ip), vehicle: saline with Tween-80 102 % of control | dose: 200.0 mg/kg/injection, schedule: Q04DX002 (ip), vehicle: saline with Tween-80 101 % of control | dose: 400.0 mg/kg/injection, schedule: Q04DX002 (ip), vehicle: saline with Tween-80 96 % of control

COc1ccc2ccccc2c1CC(C)O (stereo not given)
inactive: dose: 50.0 mg/kg/injection, schedule: Q01DX005 (ip), vehicle: saline with Tween-80 101 % of control | dose: 100.0 mg/kg/injection, schedule: Q01DX005 (ip), vehicle: saline with Tween-80 98 % of control | dose: 200.0 mg/kg/injection, schedule: Q01DX005 (ip), vehicle: saline with Tween-80 102 % of control

CC(C)(CCl)C(=O)NN=C(c1ccccc1)c1ccccc1
inactive: [16] 107 % of control | [17] 107 % of control | [18] 110 % of control

O=C1NN2CCCN=C2c2ccncc21
inactive: dose: 60.0 mg/kg/injection, schedule: Q01DX005 (ip), vehicle: saline 98 % of control | dose: 120.0 mg/kg/injection, schedule: Q01DX005 (ip), vehicle: saline 97 % of control | dose: 240.0 mg/kg/injection, schedule: Q01DX005 (ip), vehicle: saline 93 % of control
